Holding throughout (assay type): in vivo, Sprague-Dawley rats
The test system of one assay is catalase. Kind of assay: Catalase activity in hippocampus. The settings on record: 288 μmol/kg/day, 15 days from D11; D31. As to the method:
The animals were decapitated and the left hippocampus was homogenized in ice-cold buffer (20 mM Hepes pH 7.2, 1 mM EGTA, 210 mM mannitol, 70 mM sucrose). Homogenates were centrifuged and the supernatants were retained for analysis. Catalase and total SOD activities were immediately determined with commercially available kits (Cayman Chemical, Ann Arbor, Mich., USA), in accordance with the manufacturer's instructions. SOD and catalase specific activities are expressed as units per mg of hippocampus and as nmoles of formaldehyde formed per minute per mg of hippocampal tissue, respectively.
Tempol (4-hydroxy-2,2,6,6-tetramethylpiperidine 1-oxyl), which was administered at a dose of 288 μmol/kg/day [Sigma-Aldrich, St Louis, Mo., USA]), was dissolved in distilled water and delivered via ALZET osmotic mini-pumps (2002, Charles River Laboratories, France). Tempol- or distilled water-filled pumps were implanted subcutaneously on the back of intruder rats under light anesthesia with isofluorane, 11 days after completion of the social-defeat procedure (D11), and were left in place for 15 days.

The next assay concerns lipid peroxidation (MDA). Put plainly: Lipid peroxidation (TBARS/MDA) in hippocampus. Conditions: V rats; 288 μmol/kg/day, 15 days from D11; D31. As to the method:
The right hippocampus was homogenized in ice-cold buffer (Tris-HCl 50 mM pH 7.5, 150 mM NaCl, 1 mM EDTA) and used for TBARS and glutathione peroxidase (GPx) assays.
For the TBARS assay, protease inhibitors (50 μl/ml), DOC (1%), SDS (0.1%) and Triton® X-100 (0.5%) were added immediately in ice-cold buffer. For the GPx assay, 0.1 M dithiothreitol was added immediately in ice-cold buffer. The homogenates were centrifuged and the supernatants were retained for analysis. Lipid peroxidation was assessed by measuring TBARS formation with a commercial assay kit (Cayman Chemical, Ann Arbor, Mich., USA), in accordance with the manufacturer's instructions. TBARS concentration was calculated from an MDA standard curve and normalized. Total GPx activity in the homogenate was measured in accordance with the kit manufacturer's instructions (Cayman Chemical, Ann Arbor, Mich., USA). GPx specific activity is expressed as nmoles of NADPH consumed per minute per mg of hippocampal tissue. No difference in hippocampal weight was observed between defeated, vulnerable, non-vulnerable and control animals.
(§1) Tempol (4-hydroxy-2,2,6,6-tetramethylpiperidine 1-oxyl), which was administered at a dose of 288 μmol/kg/day [Sigma-Aldrich, St Louis, Mo., USA]), was dissolved in distilled water and delivered via ALZET osmotic mini-pumps (2002, Charles River Laboratories, France). […]

The next assay has as its system aconitase. Kind of assay: Aconitase activity in hippocampus. The settings on record: V rats; 288 μmol/kg/day, 15 days from D11; D31. Here is the method: Rats were killed by decapitation and their right hippocampi were rapidly removed and homogenized in ice-cold buffer (5 mM Tris-HCl pH 7.5, 210 mM mannitol, 70 mM sucrose, 1 mM EDTA and 2.3 mM sodium citrate). Homogenates were rapidly centrifuged (14,000×g, 10 min, 4° C.) and the pellets were immediately frozen in liquid nitrogen and stored at −80° C. Aconitase activity was measured spectrophotometrically (Gardner et al., 1994), by monitoring the linear absorbance change at 340 nm, at 25° C., in a 1.0-ml reaction mixture containing 50 mM Tris HCl (pH 7.5), 0.05% BSA, 2 mM sodium citrate, 2 mM MnCl2, 0.4 mM NADP+, 0.85 units of isocitrate dehydrogenase, and 10-20 μg of protein extract. The absorbance change associated with aconitase activity was linear with respect to time and protein concentration. One milliunit of aconitase activity was defined as the amount of enzyme catalyzing the formation of 1 nmol of D-isocitrate per min and per mg.
as §1

SMILES strings stand for the structures.

For `CC1(C)CC(O)CC(C)(C)N1[O]` [TEMPOL, 4-hydroxy-2,2,6,6-tetramethylpiperidin-1-oxyl], the catalase activity entry with catalase is “no effect”. Moreover, the “lipid peroxidation (MDA)” value in the assay on lipid peroxidation (MDA) is given as “lack of”. Also, the aconitase activity result with aconitase was “lack of aconitase activity dysfunction”.

The record behind these values is US20190060298A1, “NEW DRUG FOR THE TREATMENT AND/OR PREVENTION OF DEPRESSIVE DISORDERS” (SORBONNE UNIVERSITE, priority 2013, published 2019).
